Experimental findings from PubChem BioAssay AID330 (DTP/NCI, 2004) are described below.

This assay relates to P388 leukemia ip, CD2F1 mice, survival T/C. The assay can be described thus: NCI In Vivo Anticancer Drug Screen. Data for tumor model P388 Leukemia (intraperitoneal) in CD2F1 (CDF1) mice. To be noted: endpoint: median survival time, higher = longer survival. In short, it runs like this:
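Mice carrying the transplanted tumor received test compound or vehicle. Survival was recorded in each group, and the value is the treated-group measurement divided by that of the vehicle-treated control group.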

[1] abbreviates: dose: 100.0 mg/kg/injection, schedule: Q04DX003 (ip), vehicle: Klucel (hydroxypropylcellulose) (HPC).
Where [2] appears, read: dose: 200.0 mg/kg/injection, schedule: Q04DX003 (ip), vehicle: Klucel (hydroxypropylcellulose) (HPC).
Where [3] appears, read: dose: 400.0 mg/kg/injection, schedule: Q04DX003 (ip), vehicle: Klucel (hydroxypropylcellulose) (HPC).
Where [4] appears, read: dose: 50.0 mg/kg/injection, schedule: Q01DX005 (ip), vehicle: saline with Tween-80.
Where [5] appears, read: dose: 60.0 mg/kg/injection, schedule: Q01DX005 (ip), vehicle: saline with Tween-80.
The mark [6] stands for this setting: dose: 120.0 mg/kg/injection, schedule: Q01DX005 (ip), vehicle: saline with Tween-80.
[7] abbreviates: dose: 240.0 mg/kg/injection, schedule: Q01DX005 (ip), vehicle: saline with Tween-80.
Where [8] appears, read: dose: 50.0 mg/kg/injection, schedule: Q01DX005 (ip), vehicle: saline.
[9] abbreviates: dose: 100.0 mg/kg/injection, schedule: Q01DX005 (ip), vehicle: saline.
Setting [10] is: dose: 200.0 mg/kg/injection, schedule: Q01DX005 (ip), vehicle: saline.
Where [11] appears, read: dose: 100.0 mg/kg/injection, schedule: Q04DX003 (ip), vehicle: saline with Tween-80.
[12] abbreviates: dose: 200.0 mg/kg/injection, schedule: Q04DX003 (ip), vehicle: saline with Tween-80.
[13] abbreviates: dose: 400.0 mg/kg/injection, schedule: Q04DX003 (ip), vehicle: saline with Tween-80.
The mark [14] stands for this setting: dose: 12.5 mg/kg/injection, schedule: Q01DX009 (ip), vehicle: saline with Tween-80.
Where [15] appears, read: dose: 25.0 mg/kg/injection, schedule: Q01DX009 (ip), vehicle: saline with Tween-80.
Setting [16] is: dose: 50.0 mg/kg/injection, schedule: Q01DX009 (ip), vehicle: saline with Tween-80.
Setting [17] is: dose: 100.0 mg/kg/injection, schedule: Q01DX009 (ip), vehicle: saline with Tween-80.
Setting [18] is: dose: 200.0 mg/kg/injection, schedule: Q01DX009 (ip), vehicle: saline with Tween-80.

“And” between values parts separate entries of the source, which are not always exact repeats. Equal values may be shown once. Inconclusive results and toxic doses are left out. Numbered stars: 1 amine (or outer) side, 2 acyl side, 3 side chain; on linkers, the order of the positions; unused ones are H or OH. Bridge positions count the residues as written; N and C are the ends. Square brackets hold non-standard residues; d marks the D form. Peptide text beside a SMILES is read from it. * marks the point of attachment. X2 = CC(C)C(C)C(C(=O)[*:2])N(C)[*:1]; Picolinoyl(3-OH) = O=C(c1ncccc1O)*; NMePhg = CN[CH](C(=O)O)c1ccccc1; Hyp = O=C(O)[CH]1C[CH](O)CN1; Sar = CNCC(=O)O

Take `Oc1c(CNCc2ccc(Cl)c(Cl)c2)ccc2cccnc12`: the T/C reads like this: under setting [1], 104 % of control; under setting [2], 105 % of control; under setting [3], 106 % of control.

For the compound `CN1CC=C(c2ccccc2)CC1`, the T/C is 97 % of control (dose: 6.25 mg/kg/injection, schedule: Q01DX005 (ip), vehicle: saline); 99 % of control (dose: 12.5 mg/kg/injection, schedule: Q01DX005 (ip), vehicle: saline); 101 % of control and 98 % of control (dose: 25.0 mg/kg/injection, schedule: Q01DX005 (ip), vehicle: saline).

In the case of `CN(C)CCC(=O)C1CC1`, the T/C reads like this: (dose: 12.5 mg/kg/injection, schedule: Q01DX005 (ip), vehicle: suspension in saline) 94 % of control; (dose: 25.0 mg/kg/injection, schedule: Q01DX005 (ip), vehicle: suspension in saline) 97 % of control; under setting [4], 92 % of control; (dose: 50.0 mg/kg/injection, schedule: Q01DX005 (ip), vehicle: suspension in saline) 100 % of control.

As to `CCCOc1ccc2c(NCCCCCCCCNc3c4ccccc4nc4cc(OCCC)ccc34)c3ccccc3nc2c1`, the T/C runs as follows: (dose: 0.63 mg/kg/injection, schedule: Q01DX009 (ip), vehicle: other) 109 % of control; (dose: 1.25 mg/kg/injection, schedule: Q01DX009 (ip), vehicle: lactic acid) 162 % of control; (dose: 7.5 mg/kg/injection, schedule: Q01DX009 (ip), vehicle: other) 90 % of control.

`Cn1c(=O)c2c(nnc(-c3ccc(Cl)c(Cl)c3)[n+]2[O-])n(C)c1=O`: where the note is “dose: 25.0 mg/kg/injection, schedule: Q01DX001 (ip), vehicle: Klucel (hydroxypropylcellulose) (HPC)”, the T/C is 103 % of control.

`CN(CC(N)=O)C(=O)c1cnc2ccccc2c1`: the T/C was 98 % of control under setting [5], 101 % of control under setting [6] and 99 % of control under setting [7].

Take `C=C=C(C)CN(CC)CC`: the T/C under setting [8] was 108 % of control, the T/C under setting [9] was 107 % of control and the T/C under setting [10] is 108 % of control.

`COC1(OC)C2CCC1C(Cl)=C2Cl`: the T/C is 93 % of control (dose: 3.13 mg/kg/injection, schedule: Q01DX009 (ip), vehicle: saline with Tween-80); 108 % of control (dose: 3.13 mg/kg/injection, schedule: Q01DX009 (ip), vehicle: saline); 108 % of control (dose: 6.25 mg/kg/injection, schedule: Q01DX009 (ip), vehicle: saline with Tween-80); 107 % of control (dose: 6.25 mg/kg/injection, schedule: Q01DX009 (ip), vehicle: saline); 124 % of control (dose: 12.5 mg/kg/injection, schedule: Q01DX009 (ip), vehicle: saline).

Turning to `C1CN2CCCN3CCCN(C1)P23`, the T/C (dose: 100.0 mg/kg/injection, schedule: Q04DX002 (ip), vehicle: saline) is 115 % of control and the T/C (dose: 200.0 mg/kg/injection, schedule: Q04DX002 (ip), vehicle: saline) was 98 % of control.

On to `CCOC(=O)c1cc(NC(C)=O)c(C)n1C`, for which the T/C was 107 % of control under setting [11], 116 % of control under setting [12] and 112 % of control under setting [13].

Consider `COC(=O)C1=C(C(=O)OC)CC(n2nnc(C(=O)OC)c2C(=O)OC)=CC1`, for which the T/C under setting [5] is 92 % of control, the T/C under setting [6] was 101 % of control and the T/C under setting [7] was 99 % of control.

Take `CC(C)CC1NC(=O)C(NC(=O)c2ncccc2O)C(C)OC(=O)C(c2ccccc2)N(C)C(=O)C(C)NC(=O)C(C(C)C(C)C)N(C)C(=O)CN(C)C(=O)C2CC(O)CN2C1=O` (stereo unspecified) ({Picolinoyl(3-OH)}-TL[Hyp][Sar][X2]A[NMePhg]; ester 1-C; configuration not given here): the T/C was 95 % of control (dose: 12.5 mg/kg/injection, schedule: Q01DX009 (ip), vehicle: Klucel (hydroxypropylcellulose) (HPC)); 94 % of control (dose: 25.0 mg/kg/injection, schedule: Q01DX009 (ip), vehicle: Klucel (hydroxypropylcellulose) (HPC)); 93 % of control (dose: 50.0 mg/kg/injection, schedule: Q01DX009 (ip), vehicle: Klucel (hydroxypropylcellulose) (HPC)); 95 % of control and 97 % of control (dose: 100.0 mg/kg/injection, schedule: Q01DX009 (ip), vehicle: Klucel (hydroxypropylcellulose) (HPC)); 98 % of control and 119 % of control (dose: 200.0 mg/kg/injection, schedule: Q01DX009 (ip), vehicle: Klucel (hydroxypropylcellulose) (HPC)).

With `CNc1c(F)c(C#N)c(F)c(F)c1C#N`, the T/C under setting [14] is 96 % of control, the T/C under setting [15] is 89 % of control and the T/C under setting [16] is 100 % of control.

For `O=C(OC1C2COC(O2)C(OC(=O)c2ccccc2)C1OC(=O)c1ccccc1)c1ccccc1` (stereo unspecified), the T/C by setting is: (dose: 50.0 mg/kg/injection, schedule: Q01DX005 (ip), vehicle: Klucel (hydroxypropylcellulose) (HPC)) 104 % of control; (dose: 100.0 mg/kg/injection, schedule: Q01DX005 (ip), vehicle: Klucel (hydroxypropylcellulose) (HPC)) 101 % of control; (dose: 200.0 mg/kg/injection, schedule: Q01DX005 (ip), vehicle: Klucel (hydroxypropylcellulose) (HPC)) 104 % of control.

As for `CCc1cccc(CC)c1NC(=S)NC(=O)c1ccccc1`, the T/C is, setting by setting: under setting [16], 95 % of control; under setting [17], 96 % of control; under setting [18], 96 % of control.

In the case of `CS(=O)(=O)OCC1OC(n2ncc(=O)[nH]c2=O)C(O)C1O` (stereo unspecified), the T/C was 100 % of control under setting [16], 95 % of control under setting [17] and 101 % of control under setting [18].

Take `CC(=O)OC1CCC2C3CCC4CC(=O)CCC4(C)C3CCC12C` (stereo unspecified): the T/C reads like this: under setting [15], 91 % of control; under setting [16], 97 % of control; under setting [17], 97 % of control; under setting [18], 100 % of control.

Consider `CN(C)C(c1cccnc1)C1COCOC1` (stereo unspecified), for which the T/C under setting [8] was 109 % of control, the T/C under setting [9] was 106 % of control and the T/C under setting [10] was 98 % of control.

Take `O=C1c2ccccc2C(=O)C1C(=Nc1ccccc1Br)c1ccccc1`: the T/C is 99 % of control under setting [4]; 103 % of control (dose: 100.0 mg/kg/injection, schedule: Q01DX005 (ip), vehicle: saline with Tween-80); 103 % of control (dose: 200.0 mg/kg/injection, schedule: Q01DX005 (ip), vehicle: saline with Tween-80).

For the compound `COc1cc([C@@H]2c3cc4c(cc3C[C@@H]3COC(=O)[C@H]32)OCO4)cc(OC)c1OC`, the T/C runs as follows: (dose: 12.5 mg/kg/injection, schedule: Q04DX002 (ip), vehicle: saline with Tween-80) 86 % of control; (dose: 25.0 mg/kg/injection, schedule: Q04DX002 (ip), vehicle: saline with Tween-80) 96 % of control; (dose: 50.0 mg/kg/injection, schedule: Q04DX002 (ip), vehicle: saline with Tween-80) 106 % of control.

Consider `O=C(N/N=C/c1ccccn1)N/N=C/c1ccccn1`, for which the T/C is 102 % of control (dose: 12.5 mg/kg/injection, schedule: Q01DX009 (ip), vehicle: distilled water + Tween-80); 103 % of control (dose: 25.0 mg/kg/injection, schedule: Q01DX009 (ip), vehicle: distilled water + Tween-80); 113 % of control (dose: 50.0 mg/kg/injection, schedule: Q01DX009 (ip), vehicle: distilled water + Tween-80); 104 % of control (dose: 100.0 mg/kg/injection, schedule: Q01DX009 (ip), vehicle: distilled water + Tween-80).

In the case of `CCCCN(C)N=Nc1ccccc1C(N)=O`, the T/C under setting [15] was 109 % of control; the T/C under setting [16] is 118 % of control; the T/C under setting [11] is 113 % of control; the T/C (dose: 176.0 mg/kg/injection, schedule: Q04DX003 (ip), vehicle: saline with Tween-80) was 109 % of control; the T/C under setting [12] was 109 % of control; the T/C (dose: 264.0 mg/kg/injection, schedule: Q04DX003 (ip), vehicle: saline with Tween-80) was 109 % of control. Also, the T/C under setting [13] is 100 % of control.

As for `Cc1cc(C(=O)N/N=C/c2ccccc2O)c2cc(Br)ccc2n1`, the T/C reads like this: under setting [14], 88 % of control; under setting [15], 92 % of control; under setting [17], 98 % of control; under setting [18], 97 % of control.

Turning to `CC(C)CCNCC(N)C(=O)O` (stereo unspecified), the T/C under setting [1] was 100 % of control, the T/C under setting [2] was 98 % of control and the T/C under setting [3] is 99 % of control.
